Measurements published in PMC7730441, “Acetylcholinesterase and butyrylcholinesterase inhibitory activities of khellactone coumarin derivatives isolated from Peucedanum japonicum Thurnberg” (Scientific Reports, 2020).
“And” between values parts separate entries of the source, which are not always exact repeats. Equal values may be shown once.

Legend:
recombinant human MAO-A = target: T1, recombinant human MAO-A (Homo sapiens, UniProt P21397); assay: MAO-A inhibition assay (kynuramine); assay type: biochemical; settings: inhibitor 10 µM; read-out: Residual activity at 10 µM (%) MAO-A
T1 construct: purchased Sigma-Aldrich
T1 sequence (P21397 1-527): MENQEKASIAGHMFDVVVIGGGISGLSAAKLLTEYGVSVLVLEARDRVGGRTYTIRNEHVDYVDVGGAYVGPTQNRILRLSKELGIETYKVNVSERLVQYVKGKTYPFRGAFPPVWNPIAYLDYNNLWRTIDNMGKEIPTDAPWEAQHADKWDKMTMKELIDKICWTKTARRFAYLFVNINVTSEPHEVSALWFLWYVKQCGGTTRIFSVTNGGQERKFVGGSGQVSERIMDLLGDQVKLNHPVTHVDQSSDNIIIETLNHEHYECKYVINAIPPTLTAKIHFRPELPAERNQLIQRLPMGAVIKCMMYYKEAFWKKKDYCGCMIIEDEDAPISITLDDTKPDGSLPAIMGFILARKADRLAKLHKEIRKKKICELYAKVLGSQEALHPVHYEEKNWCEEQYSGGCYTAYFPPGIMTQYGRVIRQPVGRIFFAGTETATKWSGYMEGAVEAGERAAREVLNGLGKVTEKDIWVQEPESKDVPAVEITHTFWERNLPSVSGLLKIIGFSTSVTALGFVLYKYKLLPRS
Method: (§1) AChE assays were performed as described by Ellman et al.[41] with slight modifications. […] DTNB was used for color development, caused by reaction between it and thiocholine (a product of AChE). For inhibitory assays, compounds were preincubated with AChE for 15 min prior to ATCI and DTNB addition. BChE activity was assayed using the same method, but BTCI was used instead of ATCI.
(§2) Inhibitions of the activities of AChE, BChE, MAO-A, and MAO-B by the 15 compounds were investigated at an inhibitor concentration of 10 µM. IC50 values were also determined. […] The inhibition types and Ki values were determined using Lineweaver–Burk Plots and secondary plots.

recombinant human MAO-B = target: T2, recombinant human MAO-B (Homo sapiens, UniProt P27338); assay: MAO-B inhibition assay (benzylamine); assay type: biochemical; settings: inhibitor 10 µM; read-out: Residual activity at 10 µM (%) MAO-B
T2 construct: purchased Sigma-Aldrich
T2 sequence (P27338 1-520): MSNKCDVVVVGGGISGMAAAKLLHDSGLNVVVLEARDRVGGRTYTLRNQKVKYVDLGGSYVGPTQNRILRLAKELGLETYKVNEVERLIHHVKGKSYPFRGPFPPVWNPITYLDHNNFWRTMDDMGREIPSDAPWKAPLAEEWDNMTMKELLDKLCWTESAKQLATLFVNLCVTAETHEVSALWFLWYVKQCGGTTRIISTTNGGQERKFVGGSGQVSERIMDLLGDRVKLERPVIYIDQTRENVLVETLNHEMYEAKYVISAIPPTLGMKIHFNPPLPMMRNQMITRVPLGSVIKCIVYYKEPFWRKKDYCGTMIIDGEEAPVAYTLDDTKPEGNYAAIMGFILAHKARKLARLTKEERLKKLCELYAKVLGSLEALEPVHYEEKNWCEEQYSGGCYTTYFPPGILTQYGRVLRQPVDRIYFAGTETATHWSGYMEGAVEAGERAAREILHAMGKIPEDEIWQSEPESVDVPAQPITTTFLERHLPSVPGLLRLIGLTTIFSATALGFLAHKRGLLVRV
Method: as §1, §2

AChE = target: T3, AChE (Electrophorus electricus, UniProt O42275); assay: Reversibility of AChE inhibition by dialysis; assay type: biochemical; settings: for Reversibility of AChE inhibition: dialysis method; for Residual AChE activity before dialysis (AU) / Residual AChE activity after dialysis (AD): inhibitor ~ 2 × IC50: PJ13, 20 µM, PJ15, 20 µM, tacrine, 0.54 µM; for Residual AChE activity before dialysis (AU): 30 min preincubation; for Residual AChE activity after dialysis (AD): dialysis 6 h
T3 construct: AChE (Type VI-S; from Electrophorus electricus); purchased Sigma-Aldrich Type VI-S (catalogue number not given)
Method: (§3) Inhibitor reversibilities were examined using the dialysis method, using with AChE or BChE, rather than MAO enzymes. […] Dialysis was conducted for 6 h with stirring and two buffer changes. Residual activities before (AU) and after (AD) dialysis were compared to those of non-treated controls, and reversibility types were determined by comparing AD and AU values.
(§4) For recovery experiments, preincubated enzyme mixtures were dialyzed as described in the text.

BChE (from equine serum) = target: T4, BChE (from equine serum) (Equus caballus, UniProt P81908); assay: biochemical; settings: for IC50: 15 min preincubation, read-out: IC50 (µM) BChE
T4 construct: BChE (from equine serum); purchased Sigma-Aldrich; host or cells: equine serum
Method: as §1, §2

[1] = target: T5, AChE (Type VI-S; from Electrophorus electricus) (Electrophorus electricus, UniProt O42275); assay: biochemical; settings: for IC50 / Residual activity at 10 µM (%) AChE / remaining activity at 10 µM: 15 min preincubation; for IC50: read-out: IC50 (µM) AChE; for Ki: Lineweaver–Burk and secondary plots, read-out: Ki value for AChE inhibition; for Inhibition type, AChE: Lineweaver–Burk plots; for Residual activity at 10 µM (%) AChE: inhibitor 10 µM; for remaining activity at 10 µM: read-out: Residual activity at 10 µM (%) AChE, inhibitor 10 µM; for SI = IC50 of AChE/ IC50 of BChE: selectivity index
T5 construct: AChE (Type VI-S; from Electrophorus electricus); purchased Sigma-Aldrich Type VI-S (catalogue number not given)
Method: as §1, §2

[2] = system: LPS-stimulated RAW264.7 cells; parameters: method as in PMID 31704444; settings: at 10 µg/µL; cited from earlier work
[3] = parameters: method as in PMID 31704444; settings: up to 10 µg/µL (i.e., ~ 25 mM); cited from earlier work
BChE = target: T6, BChE (Equus caballus, UniProt P81908); assay: Reversibility of BChE inhibition by dialysis; assay type: biochemical, equine
T6 construct: BChE (from equine serum); purchased Sigma-Aldrich; host or cells: equine serum
Method: as §3, §4

T6 sequence (P81908 whole entry): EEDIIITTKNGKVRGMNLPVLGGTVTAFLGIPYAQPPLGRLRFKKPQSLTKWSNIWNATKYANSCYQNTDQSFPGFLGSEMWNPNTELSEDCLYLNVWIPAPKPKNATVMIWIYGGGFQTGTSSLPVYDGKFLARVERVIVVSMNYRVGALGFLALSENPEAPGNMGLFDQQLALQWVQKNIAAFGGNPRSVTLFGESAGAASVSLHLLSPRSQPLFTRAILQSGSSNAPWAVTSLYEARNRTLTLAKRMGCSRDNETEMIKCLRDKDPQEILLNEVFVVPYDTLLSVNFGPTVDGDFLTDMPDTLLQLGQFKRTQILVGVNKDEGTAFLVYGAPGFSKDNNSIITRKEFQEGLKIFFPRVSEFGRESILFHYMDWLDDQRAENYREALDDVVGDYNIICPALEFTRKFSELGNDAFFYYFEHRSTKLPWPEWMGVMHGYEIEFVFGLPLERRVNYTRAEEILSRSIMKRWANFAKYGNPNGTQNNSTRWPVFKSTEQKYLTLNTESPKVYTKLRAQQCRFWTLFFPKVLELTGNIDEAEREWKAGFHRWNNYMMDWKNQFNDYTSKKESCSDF
T4 sequence (P81908 whole entry): as above
T3 sequence (O42275 24-633): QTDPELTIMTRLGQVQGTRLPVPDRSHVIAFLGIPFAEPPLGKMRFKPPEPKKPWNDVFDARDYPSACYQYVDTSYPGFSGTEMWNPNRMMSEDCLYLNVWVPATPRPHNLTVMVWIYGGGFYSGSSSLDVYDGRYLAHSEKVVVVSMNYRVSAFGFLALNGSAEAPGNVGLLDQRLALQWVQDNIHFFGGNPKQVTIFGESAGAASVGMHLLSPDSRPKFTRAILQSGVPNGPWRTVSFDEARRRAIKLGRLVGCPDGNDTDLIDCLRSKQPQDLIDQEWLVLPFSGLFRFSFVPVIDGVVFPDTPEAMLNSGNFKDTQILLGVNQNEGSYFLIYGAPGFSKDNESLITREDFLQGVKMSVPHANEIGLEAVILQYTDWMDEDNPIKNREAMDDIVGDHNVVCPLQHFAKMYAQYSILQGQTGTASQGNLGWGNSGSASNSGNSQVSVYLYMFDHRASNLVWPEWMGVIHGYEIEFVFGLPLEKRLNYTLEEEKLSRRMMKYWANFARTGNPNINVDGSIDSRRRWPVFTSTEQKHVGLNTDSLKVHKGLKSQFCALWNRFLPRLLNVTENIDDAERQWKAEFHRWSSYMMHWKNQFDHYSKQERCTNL
T5 sequence (O42275 24-633): as above

Row | Structure (SMILES) | remaining activity at 10 µM (recombinant human MAO-A) | remaining activity at 10 µM (recombinant human MAO-B) | Reversibility of AChE inhibition (AChE) | Residual AChE activity before dialysis (AU) (AChE) | Residual AChE activity after dialysis (AD) (AChE) | IC50 (BChE (from equine serum)) | IC50 [1] | Ki [1] | Inhibition type, AChE [1] | Residual activity at 10 µM (%) AChE [1] | remaining activity at 10 µM [1] | SI = IC50 of AChE/ IC50 of BChE [1] | Anti-inflammatory effects [2] | Toxicity [3] | Reversibility of BChE inhibition (BChE; dialysis method) | Residual BChE activity before dialysis (AU) (BChE; inhibitor ~ 2 × IC50: PJ5, 14 µM, tacrine, 0.54 µM, 30 min preincubation) | Residual BChE activity after dialysis (AD) (BChE; inhibitor ~ 2 × IC50: PJ5, 14 µM, tacrine, 0.54 µM, dialysis 6 h) | Ki (BChE (from equine serum); Lineweaver–Burk and secondary plots, read-out: Ki value for BChE inhibition) | Inhibition type, BChE (BChE (from equine serum); Lineweaver–Burk plots)
1 | CCC(C)C(=O)O[C@@H]1c2c(ccc3ccc(=O)oc23)OC(C)(C)[C@@H]1OC(=O)CC(C)C (some centres unmarked) [PJ15, 3′-isovaleryl-4′-(2-methylbutyroyl)khellactone] | 76.9 ± 4.2% | 73.3 ± 7.21% | reversible | 32.8% | 68.7% | > 40 µM | 10 ± 0.48 µM | 10.4 µM | mixed-type | 50.0 ± 2.82% | < 50% | < 0.25 | potent | non-toxic | – | – | – | – | –
2 | C/C=C(/C)C(=O)O[C@@H]1c2c(ccc3ccc(=O)oc23)OC(C)(C)[C@@H]1OC(=O)C=C(C)C [PJ5, senecioyl-4′-angeloyl-khellactone] | 84.7 ± 9.3% | 96 ± 0.52% | – | – | – | 7.22 µM and 7.2 µM | > 40 µM | – | – | – | 96 ± 2.83% | > 5.54 | potent | non-toxic | reversible | 41.2% | 86.8% | 4.16 µM | mixed-type
3 | C/C=C(/C)C(=O)O[C@@H]1[C@H](OC(=O)C(C)CC)c2c(ccc3ccc(=O)oc23)OC1(C)C (some centres unmarked) [PJ13, 3′-angeloyl-4′-(2-methylbutyryl)khellactone] | 88.5 ± 5.41% | 64.6 ± 8.82% | reversible | 34.7% | 72.3% | > 40 µM | 9.28 ± 0.094 µM | 5.98 µM | mixed-type | 48.0 ± 9.40% | < 50% | < 0.23 | potent | non-toxic | – | – | – | – | –
